Measured values from patent US9663486B2, “Selectively substituted quinoline compounds” (EISAI R&D MANAGEMENT CO., LTD., priority 2013, dated 2017).
“Also recorded” adds a separate entry of the source.

Test system: auto-antibody titers (anti-dsDNA, anti-histone, anti-Sm/RNP, anti-RiboP)
Test: DBA/1 pristane lupus model, auto-antibody titers by ELISA
Type: in vivo, mouse
Conditions: DBA/1 mice, once-a-day oral dosing
Protocol: FIG. 1A through FIG. 1D show results of treatment with ER-888840 (5-((3R,5S)-3-amino-5-methylpiperidin-1-yl)quinoline-8-carbonitrile) in the DBA/1 pristane model. Figure Legend: Female DBA/1 mice at 10 weeks of age were given an intraperitoneal injection of 0.5 ml pristane or PBS. At 18 weeks of age animals were bled for pre-dosing baseline auto-antibody titers. Once-a-day oral dosing with Vehicle (Veh; 0.5% methyl-cellulose) or 11 mg/kg, 33 mg/kg, or 100 mg/kg of ER-888840 was begun at 18 weeks of age, 8 weeks after pristane injection and continued for 12 weeks of treatment. At the end of the experiment plasma samples were taken and anti-dsDNA and anti-histone (FIG. 1A) and anti-Sm/RNP and anti-RiboP (FIG. 1B) titers were determined by ELISA. (FIG. 1C) The expression of IFN-regulated genes in whole blood was measured by a qPCR panel after 8 weeks of treatment. […] (FIG. 1D) The interferon scores of individual mice were calculated (see Pharmacology Materials and Methods section for details regarding IFN score calculation) and groups compared using the Mann-Whitney t test.
FIG. 2A through 2E show results of treatment with ER-888840 in the DBA/1 pristane model. […] At the end of the experiment plasma was taken and anti-dsDNA (FIG. 2A), anti-RiboP (FIG. 2B), anti-histone (FIG. 2C) and anti-Sm/RNP (FIG. 2D) titers were determined by ELISA. […]

In the case of `C[C@H]1C[C@@H](N)CN(c2ccc(C#N)c3ncccc23)C1` [ER-888840, 5-((3R,5S)-3-amino-5-methylpiperidin-1-yl)quinoline-8-carbonitrile], the “effect on auto-antibody specificities” value is reported as “suppressed multiple auto-antibody specificities; also recorded: limited the production of several autoantibody specificities”.
